{"source": "patent US8575136B2", "about": "“2-methylene-1α-hydroxy-18,19,21-trinorvitamin D3 analogs and uses thereof” (Wisconsin Alumni Research Foundation, priority 2006, dated 2013)", "key": {"[1]": {"target": "T1, full-length recombinant rat vitamin D receptor (Rattus norvegicus, UniProt P13053)", "T1 construct": "Full-length recombinant rat receptor was expressed in E. coli BL21(DE3) Codon Plus RIL cells; histidine tag (C); made in house; host or cells: E. coli BL21(DE3) Codon Plus RIL", "T1 sequence (P13053 1-423)": "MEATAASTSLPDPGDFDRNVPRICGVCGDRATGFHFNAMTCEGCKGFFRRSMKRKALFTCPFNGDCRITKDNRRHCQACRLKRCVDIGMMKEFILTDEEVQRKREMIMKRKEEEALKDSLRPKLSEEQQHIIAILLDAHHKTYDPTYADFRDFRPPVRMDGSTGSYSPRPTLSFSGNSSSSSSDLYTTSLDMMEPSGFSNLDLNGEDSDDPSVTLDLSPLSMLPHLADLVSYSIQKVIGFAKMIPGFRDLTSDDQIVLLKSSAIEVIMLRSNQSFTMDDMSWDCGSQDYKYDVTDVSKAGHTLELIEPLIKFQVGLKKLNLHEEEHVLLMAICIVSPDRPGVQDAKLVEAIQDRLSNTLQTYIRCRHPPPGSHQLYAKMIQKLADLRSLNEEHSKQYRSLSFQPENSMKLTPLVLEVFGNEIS", "experiment": "Vitamin D receptor binding, competition with [3H]-1,25-(OH)2-D3", "details": "compared to 1α,25-dihydroxyvitamin D3; FIG. 1", "method": "Full-length recombinant rat receptor was expressed in E. coli BL21(DE3) Codon Plus RIL cells and purified to homogeneity using two different column chromatography systems. The first system was a nickel affinity resin that utilizes the C-terminal histidine tag on this protein. The protein that was eluted from this resin was further purified using ion exchange chromatography (S-Sepharose Fast Flow). Aliquots of the purified protein were quick frozen in liquid nitrogen and stored at −80° C. until use. For use in binding assays, the protein was diluted in TEDK50 (50 mM Tris, 1.5 mM EDTA, pH7.4, 5 mM DTT, 150 mM KCl) with 0.1% Chaps detergent. The receptor protein and ligand concentration was optimized such that no more than 20% of the added radiolabeled ligand was bound to the receptor.\nRadiolabeled ligand (^3H-1,25(OH)2D3, ˜159 Ci/mmole) was added in ethanol at a final concentration of 1 nM.\nRadiolabeled and unlabeled ligands were added to 100 mcl of the diluted protein at a final ethanol concentration of <10%, mixed and incubated overnight on ice to reach binding equilibrium. The following day, 100 mcl of hydroxylapatite slurry (50%) was added to each tube and mixed at 10-minute intervals for 30 minutes. […] Total binding was determined from the tubes containing only radiolabeled ligand."}, "[2]": {"system": "24-hydyroxylase (24Ohase) gene promoter upstream of a luciferase reporter gene in ROS 17/2.8 (bone) cells", "experiment": "In vitro transcription assay (luciferase reporter)", "format": "cell-based", "details": "Ros17/2.8 (bone) cells, compared to 1α,25-dihydroxyvitamin D3; FIG. 5", "method": "Transcription activity was measured in ROS 17/2.8 (bone) cells that were stably transfected with a 24-hydyroxylase (24Ohase) gene promoter upstream of a luciferase reporter gene (Arbour et al., 1998). Cells were given a range of doses. Sixteen hours after dosing the cells were harvested and luciferase activities were measured using a luminometer. (RLU=relative luciferase units)"}, "HL-60 cells": {"system": "HL-60 cells", "experiment": "HL-60 differentiation (nitro blue tetrazolium reduction)", "format": "cell-based, human", "details": "compared to 1α,25-dihydroxyvitamin D3; FIG. 4", "method": "The study drugs were dissolved in ethanol and the concentrations determined using UV spectrophotometry. Serial dilutions were prepared so that a range of drug concentrations could be tested without changing the final concentration of ethanol (<0.2%) present in the cell cultures.\nHuman promyelocytic leukemia (HL60) cells were grown in RPMI-1640 medium containing 10% fetal bovine serum. The cells were incubated at 37° C. in the presence of 5% CO2.\nHL60 cells were plated at 1.2×10^5 cells/ml. Eighteen hours after plating, cells in duplicate were treated with drug. Four days later, the cells were harvested and a nitro blue tetrazolium reduction assay was performed (Collins et al., 1979; J. Exp. Med. 149:969-974). The percentage of differentiated cells was determined by counting a total of 200 cells and recording the number that contained intracellular black-blue formazan deposits. Verification of differentiation to monocytic cells was determined by measuring phagocytic activity (data not shown)."}, "[3]": {"experiment": "Intestinal calcium transport (everted gut sac method)", "set-up": "species or system Sprague-Dawley rats", "details": "in vivo, rats, ip doses; FIG. 3", "method": "(§1) Male, weanling Sprague-Dawley rats were placed on Diet 11 (0.47% Ca) diet+AEK for one week followed by Diet 11 (0.02% Ca)+AEK for 3 weeks. The rats were then switched to a diet containing 0.47% Ca for one week followed by two weeks on a diet containing 0.02% Ca. Dose administration began during the last week on 0.02% calcium diet. Four consecutive ip doses were given approximately 24 hours apart. Twenty-four hours after the last dose, blood was collected from the severed neck and the concentration of serum calcium determined as a measure of bone calcium mobilization. The first 10 cm of the intestine was also collected for intestinal calcium transport analysis using the everted gut sac method. The everted gut sac assay was carried out as previously described by Martin and Deluca, Am. J. Physiol. 216, 1351 (1969); (DeLuca et al., U.S. Pat. No. 4,188,345), which are incorporated by reference as if fully set forth herein.\nBoth control and test articles are administered by intraperitoneal injection in 100 microliters for 4-7 consecutive days spaced approximately 24 hours apart."}, "[4]": {"experiment": "Bone calcium mobilization (serum calcium)", "set-up": "species or system Sprague-Dawley rats", "details": "in vivo, rats, ip doses; FIG. 2", "method": "as §1, with “herein. […]” for “herein.”\nTwenty-four hours after the final dose, approximately 1 ml of blood is allowed to coagulate at room temperature and then centrifuged at 3000×g for 15 minutes. […] The level of calcium is determined by diluting the serum into 0.1% lanthum chloride and measuring the absorbance on an atomic absorption spectrophotometer (Perkin Elmer Model 3110, Shelton, Conn.)."}}, "note": "Entries after “also recorded” stand apart in the source; their conditions may differ.", "data": [{"smiles": "C=C1[C@H](O)CC(=C/C=C2\\CCC[C@@H]3[C@@H](CCCCC(C)C)CC[C@@H]23)C[C@H]1O", "note": "[SX-99, 2-methylene-1α-hydroxy-18,19,21-trinorvitamin D3]", "values": [{"measurement": "binding to the recombinant vitamin D receptor", "setting": "[1]", "value": "considerably less active; also recorded: relatively high binding"}, {"measurement": "stimulating transcription of a reporter gene", "setting": "[2]", "value": "less active"}, {"measurement": "inducing differentiation of HL-60 cells", "setting": "HL-60 cells", "value": "slightly less active; also recorded: relatively high cell differentiation activity"}, {"measurement": "intestinal calcium transport activity", "setting": "[3]", "value": "potent calcium transport activity; also recorded: significant intestinal calcium transport activity"}, {"measurement": "bone calcium mobilization activity", "setting": "[4]", "value": "significant bone calcium mobilization activity; also recorded: good ability to mobilize calcium from bone"}]}]}
